Laboratory results from patent US12582689B2, “Use of terpenoids in the treatment or prevention of fibrotic diseases” (ARJIL BIOTECH HOLDING COMPANY LIMITED, priority 2020, dated 2026).

How the values were obtained:
Format in all cases: in vivo
[1] = tested on: TNF-α, IL-1β, IL-6 and TGF-β; assay: Bleomycin-induced pulmonary fibrosis in mice: pro-inflammatory cytokines by ELISA; conditions: extract 1.0 g/kg, BH and DH (50 mg/kg), p<0.001, FIG. 35
Experimental: Mice were divided into fifth groups with 5 animals per group according to body weight: control group, BLM group, BLM+DEX group (7.5 mg/kg), BLM+ACH dosage group (50 mg/kg), and BLM+ACM dosage group ([…]), BLM+ACH dosage group (50 mg/kg), and BLM+ACM dosage group (25 mg/kg) BLM+AH dosage group (50 mg/kg), and BLM+AM dosage group (25 mg/kg) BLM+BH dosage group (50 mg/kg), and BLM+BM dosage group (25 mg/kg) BLM+CH dosage group (50 mg/kg), and BLM+CM dosage group (25 mg/kg) BLM+DH dosage group (50 mg/kg), and BLM+DM dosage group (25 mg/kg) BLM+EH dosage group (50 mg/kg), and BLM+EM dosage group (25 mg/kg) BLM. Pulmonary fibrosis (PF) was established in mice via a single intratracheal administration of BLM at 7.5 mg/kg mg/kg body weight. Different doses of samples were intragastrically administered daily for 21 days after BLM injury, and DEX was used as the positive control. Control and model groups received an equal volume of vehicle (0.9% NaCl) using the same schedule and route of administration. […]
The serum concentration of the pro-inflammatory cytokines (i.e. tumor necrosis factor-α (TNF-α), interleukin-6 (IL-6), and IL-1β) in serum were assessed with relevant enzyme-linked immunosorbent assay (ELISA) kits (Biosource International Inc., Sunnyvale, CA, USA), based on the manufacturer's instructions. […]

[2] = tested on: CCl4-induced chronic liver fibrosis in SD rats; assay: CCl4-induced chronic liver fibrosis in rat
Experimental: Blood samples are collected at week 0, 2, 4, 6, and 8. The animals are sacrificed at the end of the 8-week for histopathological examinations. FIGS. 7A, 7B, 7C depict delta weight, liver weight, and liver/body-weight ratio, respectively.
The level of clinical biochemistry such as aspartate aminotransferase (AST), alanine aminotransferase (ALT), is evaluated to determine the enzymatic activities of the livers of the control groups and the experimental groups (shown in FIGS. 8A-8C).

[3] = tested on: cisplatin-induced renal injury in C57BL/6 mice; assay: Mice model of cisplatin-induced renal injury: serum CRE/BUN and kidney histopathology; conditions: for renal protection: normalization of serum CRE and BUN: cisplatin-treated mice, extracts at 1000 mg/kg, compound doses not given, p<0.001 vs cisplatin group
Experimental: Determination of biochemical parameters Serum creatinine and serum urea are assessed using colorimetric kits according to manufacturer's instructions. Kits of the former markers are purchased from (HUMAN Diagnostics Worldwide, Magdeburg, Germany) with a chemical analyzer (Roche Diagnostics, Cobas Mira Plus, Rotkreuz, Switzerland).
Kidney histopathology The anterior portion of the […] from each mouse is fixed in 10% formaldehyde phosphate butler, embedded in paraffin, cut into 5 μm sections, and then treated with an hematoxylin and eosin (H&E) stain for histological examination under the light microscopy (Nikon, ECLIPSE, TS100, Tokyo, Japan). Images are captured with a digital camera (NIS-Elements D 2.30, SP4, Build 387) at an original magnification of 400×.
(§1) Seven-to-eight-week-old male C57BL/6 mice are obtained from the BioLASCO Taiwan Co., Ltd, (Taipei, Taiwan). The animals are housed in Plexiglas cages at a constant temperature of 22±1° C. and a relative humidity of 55±5% on a 12 h dark-light cycle for at least 2 weeks before the experiment. Animals are provided food and water ad libitum. All experimental procedures are performed according to the guidelines of the institutional Animal Ethics Committee, and the protocol is approved by the Committee for the Purpose of Control and Supervision of Experiments on Animals.
(§2) Renal fibrosis is induced via multiple injections of low-dose cisplatin. Intraperitoneal injections of cisplatin (5 mg/kg/injection; P4394, Sigma-Aldrich, St Louis, MO) are performed at 0, 1, and 3 weeks, for a total of 3 injections. Mice are sacrificed at 6 weeks after the first dose of cisplatin (n=6). To analyze the effects of samples, mice are given daily intraperitoneal injections for 7 days, starting from 4 weeks after first dose of cisplatin, and sacrificed at 4 weeks (n=6).

[4] = tested on: TNF-α, IL-1β, IL-6 and TGF-β levels in serum; assay: Cisplatin-induced renal injury mice: serum pro-inflammatory cytokines by ELISA; conditions: cisplatin-treated mice, extract at 1000 mg/kg, FIG. 4
Experimental: TNF-α, IL-6, and IL-1β cytokines in serum The serum concentration of the pro-inflammatory cytokines (i.e. tumor necrosis factor-α (TNF-α), interleukin-6 ([…]), and IL-1β) in serum are assessed with relevant enzyme-linked immunosorbent assay ([…]) kits (Biosource International Inc., Sunnyvale, CA, USA), based on the manufacturer's instructions.
as §1
as §2, with “weeks (n=6). […]” for “weeks (n=6).”

[5] = tested on: lung MPO activity; assay: Bleomycin-induced pulmonary fibrosis in mice: lung myeloperoxidase (MPO) assay; conditions: BLM mice; compared with BLM group, p<0.001; FIG. 36
Experimental: Mice were divided into fifth groups with 5 animals per group according to body weight: control group, BLM group, BLM+DEX group (7.5 mg/kg), BLM+ACH dosage group (50 mg/kg), and BLM+ACM dosage group (2.5 mg/kg), BLM+ACH dosage group (50 mg/kg), and BLM+ACM dosage group (25 mg/kg) BLM+AH dosage group (50 mg/kg), and BLM+AM dosage group (25 mg/kg) BLM+BH dosage group (50 mg/kg), and BLM+BM dosage group (25 mg/kg) BLM+CH dosage group (50 mg/kg), and BLM+CM dosage group (25 mg/kg) BLM+DH dosage group (50 mg/kg), and BLM+DM dosage group (25 mg/kg) BLM+EH dosage group (50 mg/kg), and BLM+EM dosage group (25 mg/kg) BLM. Pulmonary fibrosis (PF) was established in mice via a single intratracheal administration of BLM at 7.5 mg/kg mg/kg body weight. Different doses of samples were intragastrically administered daily for 21 days after BLM injury, and DEX was used as the positive control. Control and model groups received an equal volume of vehicle (0.9% NaCl) using the same schedule and route of administration.
The pulmonary MPO activity was a reliable index for estimating the infiltration of inflammatory cells in lungs. The lung tissues were homogenized and the MPO levels were detected with the kits according to manufacturer's instruction.

[6] = tested on: bleomycin-induced pulmonary fibrosis in mice; assay: Bleomycin-induced pulmonary fibrosis in mice: body and lung weight, lung index, histopathology, hydroxyproline; conditions: BLM mice; for hydroxyproline (HP) content in lung tissue: extract 1.0 g/kg, compound high-dose groups (50 mg/kg), p<0.001, FIG. 34; for Pulmonary index [(lung weight/body weight)×100]: BLM group 1.60 ± 0.02
Experimental: Specific pathogen-free ICR mice (males) (body weights 18-22 g) were purchased from the BioLASCO Taiwan Co., Ltd. (Taipei, Taiwan). The animals were housed in Plexiglas cages at a constant temperature of 22±1° C. and a relative humidity of 55±5% on a 12 h dark-light cycle for at least 2 weeks before the experiment. Animals were provided food and water ad libitum. All experimental procedures were performed according to the guidelines of the Institutional Animal Ethics Committee, and the protocol was approved by the Committee for the Purpose of Control and Supervision of Experiments on Animals.
Pulmonary fibrosis (PF) was established in mice via a single intratracheal administration of BLM at 7.5 mg/kg mg/kg body weight. Different doses of samples were intragastrically administered daily for 21 days after BLM injury, and DEX was used as the positive control. Control and model groups received an equal volume of vehicle (0.9% NaCl) using the same schedule and route of administration.
Mouse body weights were recorded daily. Mice were sacrificed on the 21th day using excess chloral hydrate hydrochloride anesthesia. Blood was obtained for ELISA analyses, and whole lungs were removed and weighed. […] The pulmonary coefficient was calculated using the following equation: lung weight/body weight×100%

C=C1C(=O)O[C@H]2/C=C(\C)CC3C=C(CC/C=C(\C)CC[C@H]12)C(=O)O3 (stereo partly shown) [AR100-DS1, Ovatodiolide]
TNF-α, IL-1β, IL-6 and TGF-β production after BLM challenge [1]: improved TNF-α, IL-1β, IL-6 and TGF-β production | liver weight ([2]; 50 mg/kg, SD rats, 8 weeks CCl4, compared to Vehicle and Naïve group): significantly larger | liver appearance ([2]; 50 mg/kg, after 8 weeks of CCl4 induction): smooth surface without atrophy and sclerosis | serum AST and ALT level ([2]; 50 mg/kg, at W6 and W8, compared with the vehicle group): less AST and ALT increases | CCl4-induced liver injury, overall ([2]; SD rats, 8 weeks CCl4): potential to partially repair CCl4-induced liver injury | kidney histopathology (H&E): necrosis and inflammatory infiltrating cells ([3]; cisplatin-stimulated mice, extract at 1000 mg/kg, FIG. 3): significantly improved necrosis and inflammatory infiltrating cells | renal protection: normalization of serum CRE and BUN [3]: significant renal protection effect | serum NO, TNF-α, IL-1β and IL-6 production after cisplatin challenge [4]: improved NO, TNF-α, IL-1β, and IL-6 production | lung MPO activity [5]: evidently suppressed the MPO activities | hydroxyproline (HP) content in lung tissue [6]: reduced lung HP

C=C(CC[C@@H](C(=O)O)[C@H]1CC[C@@]2(C)C3=CC[C@H]4C(C)(C)[C@@H](O)CC[C@]4(C)C3=CC[C@]12C)C(C)C [AR101-DS4, Dehydroeburicoic Acid]
renal protection: normalization of serum CRE and BUN [3]: significant renal protection effect

C=C(CC[C@@H](C)[C@H]1CC[C@H]2C3=C(C(=O)C[C@]12C)[C@@]1(C)CC[C@@H](O)[C@](C)(O)[C@@H]1C[C@@H]3O)[C@@H](C)C(=O)O (stereo in doubt) [AR101-DS1, RS-Antcin K]
hydroxyproline (HP) content in lung tissue [6]: reduced lung HP

C=C(CC[C@@H](C)[C@H]1CC[C@H]2C3=C(C(=O)C[C@]12C)[C@@]1(C)CC[C@@H](O)[C@](C)(O)[C@@H]1C[C@@H]3O)[C@@H](C)C(=O)O (racemic) [AR101-DS1, RS-Antcin K]
lung MPO activity [5]: evidently suppressed the MPO activities

Dehydrosulphurenic acid/Sulphurenic acid [AR101-DS2]
TNF-α, IL-1β, IL-6 and TGF-β production after BLM challenge [1]: improved TNF-α, IL-1β, IL-6 and TGF-β production | lung MPO activity [5]: evidently suppressed the MPO activities | Pulmonary index [(lung weight/body weight)×100] ([6]; 25 mg/kg daily for 21 days): 1.26 ± 0.03 | Pulmonary index [(lung weight/body weight)×100] ([6]; 50 mg/kg daily for 21 days, 50 mg/kg): 1.01 ± 0.02 | Pulmonary index [(lung weight/body weight)×100] ([6]; 50 mg/kg daily for 21 days, listed as BH, 50 mg/kg): significant decrease | hydroxyproline (HP) content in lung tissue [6]: reduced lung HP
